Data set [1] relates to MDA in HT-1080 xenograft tumor tissue. Nature of the data set: MDA immunohistochemistry on paraffin-embedded tumor sections. Conditions: tumors resected at day 14. Format: in vivo, mice. How it is done: Tumor tissue was fixed in 4% paraformaldehyde (PFA) for 24 h at 4° C. followed by washing three times with PBS. The samples were fixed in paraffin. Six series of […] sections were obtained with a sliding microtome. The serial sections were then mounted on gelatin-coated slide. The paraffin-embedded tissue sections were deparaffinized with xylene three times, 5 min each, followed by rehydrating in 100%, 90%, 70%, and 50% ethanol, two washes 5 min each, then rinsed with distilled water. Antigen retrieval was performed in sodium citrate buffer, pH 6.0, 95-100° C. for 10 min. Sections were then rinsed in PBST, 2 min each. A hydrophobic barrier pen was used to draw a circle on each slide. The slides were permeabilized with PBS/0.4% Triton X-100 twice before non-specific-binding blocking by incubating the sections with 10% goat serum (ThermoFisher 50197Z) for 30 minutes at room temperature. […] All images were captured on a Zeiss LSM 700 confocal microscope with constant laser intensity for all analyzed samples. The intensity above threshold of the fluorescent signal of the bound antibodies was analyzed using NIH ImageJ software.
Next, malondialdehyde (MDA) levels, as a biomarker for ferroptosis, were measured in tumor tissue using immunohistochemistry on fixed and paraffin-embedded tumor samples resected at day 14 post-treatment (FIG. 6B).

Data set [2] relates to HT-1080 xenograft tumors. The data set is described as follows: HT-1080 tumor xenograft study in mice. Conditions: 40 mg/kg IKE i.p. daily for 14 days.
Procedure: The injections were repeated daily for 14 days. […] For the sorafenib experiment, the formulation used was 40 mg/kg sorafenib in 5% DMSO, 20% ethanol in water containing 30% w/v cyclodextrin. […] Tumor size was measured daily using calipers and mouse weight was measured daily.
The efficacy of the combined treatment regimen of radiation and ferroptosis inducer was evaluated in an in vivo tumor model. […] Athymic nude mice were implanted with subcutaneous HT-1080 fibrosarcoma cells to form xenograft tumors.
Data set [3] relates to TM00219 patient-derived xenograft tumors. The data set is described as follows: Patient-derived xenograft study in mice (TM00219 lung adenocarcinoma). Format: in vivo. Particulars: 40 mg/kg i.p. daily for 14 days, NSG mice. How it is done: The experiment was conducted according to the same protocol as the HT-1080 tumor xenograft study, with the exception that a single dose of radiation (sham or 6 Gy) was delivered to the tumor on day 1 of the experiment.
Finally, the effect of ferroptosis-inducing system xc^− inhibitors, in combination with radiation, was tested on a patient-derived xenograft (PDX) model of lung adenocarcinoma, which is another type of cancer commonly treated with radiation therapy. NSG mice engrafted with a human lung adenocarcinoma tumor (TM00219) were evaluated.
On the technique in general: A xenograft is tissue or cells of one species grown in another, often human tumour cells in immunodeficient mice.

For data set [4], the system named is reduced glutathione (GSH) in HT-1080 cells. Nature of the data set: Reduced glutathione measurement in cells. The class given is cell-based. Conditions: HT-1080, irradiated cells (2 or 6 Gy, 24 hours) co-treated with 2 μM IKE. How it is done: Cystine taken up by system xc^− is reduced to cysteine, a building block in the biosynthesis of glutathione. […] Using a fluorometric GSH probe, we observed that treatment with 2 or 6 Gy radiation for 24 hours depleted GSH in a dose-dependent manner in HT-1080 cells (FIG. 2E). […] Indeed, the decrease in colony formation of HT-1080 cells following 2 or 4 Gy radiation was rescued by either glutathione methyl ester or N-acetylcysteine, which is a biological precursor to glutathione (FIG. 9).

The format of data set [5] is in vivo. Particulars: 40 mg/kg IKE i.p. 14 days, with or without 6 Gy radiation.
The test system of data set [6] is HT-1080 cells. Nature of the data set: Cell Titer Glo cell viability assay with radiation. Particulars: HT-1080, 4 Gy radiation for 24 h. The class given is cell-based. How it is done:
HT-1080 cells were plated at 1,000 cells per well in white 96-well plates (100 uL per well) in technical duplicates. The cells were then treated with vehicle (DMSO), Ferrostatin-1, DFO, Z-VAD-FMK or Necrostatin-1S and incubated overnight. […] After another 24 h, 100 uL of 50% Cell Titer Glo (Promega) 50% cell culture medium was added to each well and incubated at room temperature with shaking for 15 min. Luminescence was measured using a Victor X5 plate reader (PerkinElmer). Experiments were performed three independent times with different passages for each cell line.
(In general: In ATP-based viability assays light output follows the ATP content of the culture.)

Consider `CC(C)Oc1ccc(C(=O)Cn2ccnc2)cc1-n1c(CN2CCN(C(=O)COc3ccc(Cl)cc3)CC2)nc2ccccc2c1=O` [IKE, imidazole ketone erastin], for which, in data set [1], the “MDA signal in tumors, IKE and radiation vs vehicle” value was “Significantly elevated MDA signal”; the “MDA signal in tumors, IKE only vs vehicle” value is “No significant differences”. In addition, the “Tumor volume, IKE plus radiation” value in data set [2] (6 Gy on days 2 and 4) was “enhanced the effects of radiation in reducing tumor growth”. Besides, in data set [2] (athymic nude mice), the “Tumor volume, IKE alone” value is “not strongly effective”. Further, in data set [3] (6 Gy on day one), the “Tumor growth, combination with radiation vs all other groups” value is on record as “significant tumor growth inhibition”. The “Tumor growth, drug alone vs vehicle only” value in data set [3] was “significant tumor control”. Further, in data set [4], the “Levels of reduced glutathione” value was “further decreased”. In addition, the “Tolerability (weight loss)” value in data set [5] is recorded as “well tolerated”.

Turning to `CCOC(=O)c1ccc(NC2CCCCC2)c(N)c1` [ferrostatin-1], the “Cell viability after radiation (ATP-based luciferase assay)” value in data set [6] is reported as “rescued from death”.

Values taken from US20220193047A1, “METHODS OF ENHANCING RADIOTHERAPY USING FERROPTOSIS INDUCERS AS RADIOSENSITIZERS” (THE TRUSTEES OF COLUMBIA UNIVERSITY IN THE CITY OF NEW YORK, priority 2019, published 2022).
